Results published in patent US7378415B2, “Benzoxazine and quinoxaline derivatives and uses thereof” (Roche Palo Alto LLC, priority 2004, dated 2008).
Where a name gives a salt, the structure may show the parent alone.

target: T1, recombinant human 5-HT6 receptor (Homo sapiens, UniProt P50406); experiment: Radioligand binding, [3H]LSD competition in HEK293 cell membranes; settings: [3H]LSD displacement, pH 7.4, 37° C., read-out: pKi for the 5-HT6 receptor (converted)
T1 construct: expressed in transfected cells
T1 sequence (P50406 whole entry): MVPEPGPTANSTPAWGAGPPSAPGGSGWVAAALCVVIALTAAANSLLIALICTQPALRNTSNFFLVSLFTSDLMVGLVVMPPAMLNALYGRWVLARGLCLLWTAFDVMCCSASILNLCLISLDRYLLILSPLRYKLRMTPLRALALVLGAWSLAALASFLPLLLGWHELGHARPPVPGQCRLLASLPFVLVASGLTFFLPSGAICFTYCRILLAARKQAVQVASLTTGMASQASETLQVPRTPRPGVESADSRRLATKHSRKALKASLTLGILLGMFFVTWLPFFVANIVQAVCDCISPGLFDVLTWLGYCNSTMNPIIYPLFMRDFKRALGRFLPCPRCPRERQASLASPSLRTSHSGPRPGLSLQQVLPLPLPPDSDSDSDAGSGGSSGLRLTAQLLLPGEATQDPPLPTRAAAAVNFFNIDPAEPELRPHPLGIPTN
Procedure: (§1) The binding activity of compounds of this invention in vitro was determined as follows. Duplicate determinations of 5-HT6 ligand affinity were made by competing for binding of [^3H]LSD in cell membranes derived from HEK293 cells stably expressing recombinant human 5-HT6 receptor. Duplicate determinations of 5-HT2A ligand affinity were made by competing for binding of [^3H]Ketanserin (3-(2-(4-(4-fluorobenzoyl)piperidinol)ethyl)-2,4(1H,3H)-quinazolinedione) in cell membranes derived from CHO-K1 cells stably expressing recombinant human 5-HT2A receptor.
(§2) Assay tubes containing [^3H] LSD or [^3H]Ketanserin (5 nM), competing ligand, and membrane were incubated in a shaking water bath for 75 min. at 37° C. (for 5-HT6) or 60 min. at 32° C. (for 5-HT2A), filtered onto Packard GF-B plates (pre-soaked with 0.3% PEI) using a Packard 96 well cell harvester and washed 3 times in ice cold 50 mM Tris-HCl. Bound [^3H] LSD or [^3H]Ketanserin were determined as radioactive counts per minute using Packard TopCount.
(§3) Displacement of [^3H]LSD or [^3H]Ketanserin from the binding sites was quantified by fitting concentration-binding data to a 4-parameter logistic equation:
(§4) [formula] where Hill is the Hill slope, [ligand] is the concentration of competing radioligand and IC50 is the concentration of radioligand producing half-maximal specific binding of radioligand. […]

Row | Compound | Ki [nM]
1 | O=S(=O)(c1ccccc1)c1ccc2c(c1)OCCN2C1CCNCC1 [Compound 22, 7-Benzenesulfonyl-4-piperidin-4-yl-3,4-dihydro-2H-benzo[1,4]oxazine] | ~0.105

target: T2, recombinant human 5-HT2A receptor (Homo sapiens, UniProt P28223); experiment: Radioligand binding, [3H]Ketanserin competition in CHO-K1 cell membranes; settings: [3H]Ketanserin displacement, pH 7.4, 32° C., read-out: pKi for the 5-HT2A receptor (converted)
T2 construct: expressed in transfected cells
T2 sequence (P28223 whole entry): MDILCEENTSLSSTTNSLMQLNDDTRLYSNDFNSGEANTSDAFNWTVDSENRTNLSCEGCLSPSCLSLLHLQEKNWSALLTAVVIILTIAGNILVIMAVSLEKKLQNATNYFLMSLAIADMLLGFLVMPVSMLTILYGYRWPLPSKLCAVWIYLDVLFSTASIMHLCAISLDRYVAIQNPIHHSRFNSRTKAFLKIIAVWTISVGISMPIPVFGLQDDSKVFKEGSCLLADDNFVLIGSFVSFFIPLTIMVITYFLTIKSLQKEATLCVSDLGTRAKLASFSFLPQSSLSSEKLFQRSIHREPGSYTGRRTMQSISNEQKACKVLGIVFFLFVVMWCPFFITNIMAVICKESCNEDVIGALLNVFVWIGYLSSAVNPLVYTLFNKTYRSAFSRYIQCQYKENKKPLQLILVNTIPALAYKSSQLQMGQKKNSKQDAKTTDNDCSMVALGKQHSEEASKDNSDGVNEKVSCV
Procedure: as §1, §2, §3, §4

Row | Compound | Ki [nM]
2 | O=S(=O)(c1ccccc1)c1ccc2c(c1)OCCN2C1CCNCC1 [Compound 22, 7-Benzenesulfonyl-4-piperidin-4-yl-3,4-dihydro-2H-benzo[1,4]oxazine] | ~8.13

test system: not given; experiment: not given; settings: not given

Row | Compound | melting point [°C]
3 | O=S(=O)(c1ccccc1)c1ccc2c(c1)OCCN2C1CCNC1 (centres unmarked) (as salt: hydrochloride) | 122.8 to 127.6
4 | CN(C)CC(=O)N1CCOc2ccc(S(=O)(=O)c3ccccc3)cc21 (as salt: hydrochloride) | 199 to 203
5 | NCCNC(=O)N1CCOc2ccc(S(=O)(=O)c3ccccc3)cc21 | 172.4 to 181.3
6 | O=C1COc2cc(S(=O)(=O)c3ccccc3)ccc2N1CC1=NCCN1 (as salt: HCl) | 113.7 to 116
7 | O=C(C1CNC1)N1CCOc2cc(S(=O)(=O)c3ccccc3)ccc21 (as salt: hydrochloride) | 182 to 186.6
8 | O=C1COc2ccc(S(=O)(=O)c3ccccc3)cc2N1CC1=NCCN1 (as salt: HCl) | 250 to 252
9 | CNCCC(=O)N1CCOc2ccc(S(=O)(=O)c3ccccc3)cc21 (as salt: hydrochloride) | 208.3 to 214.7
10 | NCCN1CCOc2ccc(S(=O)(=O)c3ccccc3)cc21 (as salt: HCl) | 242.9 to 245.9
11 | O=C(C1CCCNC1)N1CCOc2cc(S(=O)(=O)c3ccccc3)ccc21 (centres unmarked) (as salt: hydrochloride) | 130.5 to 136.7
12 | O=C(CC1=NCCN1)N1CCOc2cc(S(=O)(=O)c3ccccc3)ccc21 (as salt: HCl) | 202.3 to 203.6
13 | O=S(=O)(c1ccccc1)c1ccc2c(c1)N(CC1=NCCN1)CCO2 (as salt: HCl) | 114 to 116.1
14 | NCCN1CCOc2cc(S(=O)(=O)c3ccccc3)ccc21 (as salt: HCl) | 261 to 265.1
15 | O=C(CC1=NCCN1)N1CCOc2cc(S(=O)(=O)c3ccccc3)ccc21 | 44 to 47
16 | CC1(C)CN(c2ccncc2)c2ccc(S(=O)(=O)c3ccccc3)cc2O1 (as salt: hydrochloride) | 112.7 to 120.4
17 | CN(C)CCCCN1C(=O)COc2cc(S(=O)(=O)c3ccccc3)ccc21 (as salt: HCl) | 179 to 180
18 | N=C(N)NC(=O)N1CCOc2cc(S(=O)(=O)c3ccccc3)ccc21 (as salt: hydrochloride) | 148.5 to 151.6
19 | O=C(CC1=NCCN1)N1CCOc2ccc(S(=O)(=O)c3ccccc3)cc21 | 114 to 116.1
20 | NCCN1C(=O)COc2cc(S(=O)(=O)c3ccccc3)ccc21 (as salt: hydrochloride) | 206.9 to 209.1
21 | CN(C)CCN1C(=O)COc2cc(S(=O)(=O)c3ccccc3)ccc21 (as salt: HCl) | 232.9 to 235.3
22 | CC1(C)CN(C2CCNCC2)c2ccc(S(=O)(=O)c3ccccc3)cc2O1 (as salt: hydrochloride) | 284.9 to 296.3
23 | NCCNC(=O)N1CCOc2cc(S(=O)(=O)c3ccccc3)ccc21 (as salt: hydrochloride) | 220.9 to 221.3
24 | CNCC(=O)N1CCOc2ccc(S(=O)(=O)c3ccccc3)cc21 (as salt: hydrochloride) | 233 to 235.5
25 | O=C(C1CCNC1)N1CCOc2cc(S(=O)(=O)c3ccccc3)ccc21 (centres unmarked) (as salt: hydrochloride) | 109.2 to 110.5
26 | O=S(=O)(c1ccccc1)c1ccc2c(c1)OCCN2CCn1ccnc1 | 61.5 to 64.4
27 | N=C(N)NC(=O)N1CCOc2cc(S(=O)(=O)c3ccccc3)ccc21 | 61.2 to 67.3
28 | CN(C)CCCN1C(=O)COc2cc(S(=O)(=O)c3ccccc3)ccc21 (as salt: HCl) | 194 to 196.4
29 | CNCCCN1CCOc2cc(S(=O)(=O)c3ccccc3)ccc21 (as salt: hydrochloride) | 188.3 to 193.2
